Key:
[1] = Aqueous degradation at pH 10.2; type: physicochemical; conditions: sodium tetraborate buffer (28 mM), no nucleophile, read-out: t1/2 of aqueous degradation (converted)
Method: The Nα-acetyl lysine stability assay was performed in analogy to the GSH stability assay by substituting GSH with Nα-acetyl lysine at pH 7.4 and additionally at pH 10.2 to mimic the pKa depression often observed for biologically relevant lysines. PBS-buffer was substituted with a sodium tetraborate buffer (28 mM) for experiments at pH 10.2.
4. Nα-Acetyl Lysine Stability Assay

Microsomal stability = type: in vitro ADME, mouse; conditions: 100 μM, NADPH-regenerating system, up to 90 min
Method: Pooled liver microsomes from mice (male) were purchased from XenoTech LLC (Sekisui XenoTech LLC, Kansas City, KS, USA). Incubation of compound 2 was made in the presence of an NADPH-regenerating system (5 mM glucose-6-phosphate, 5 U/mL glucose-6-phosphate dehydrogenase, and 1 mM NADP^+). Compound 2 (100 μM), the NADPH-regenerating system, and 4 mM MgCl2⋅6 H2O in 0.1 M Tris buffer (pH 7.4) were preincubated for 5 min at 37 °C and 750 rpm on a shaker. The incubation mix was split into aliquots (50 μL) and the reaction was started by the addition of mouse liver microsomes. The reaction was quenched at selected time points (0, 10, 20, 30, 60, and 90 min) by adding 100 μL internal standard at a concentration of 50 μM in MeCN. The samples were vortexed for 30 s and centrifuged (19,800 relative centrifugal force/4 °C/15 min). The supernatant was directly used for LC-MS analysis. All incubations were conducted in triplicates and a limit of 1% organic solvent was not exceeded. […]
Detection was performed on a Micromass Quattro micro triple quadrupole mass spectrometer (Waters GmbH, Eschborn, Germany) using electrospray ionization in positive mode. […] The data were analyzed using MassLynx 4.1 (Waters Corporation, Milford, MA, USA)

BMPR2 = target: T1, BMPR2 (Homo sapiens, UniProt Q13873); assay: DSF thermal shift assay; type: binding; conditions: inhibitor 10 μM, protein 2 μM
T1 construct: purchased in-house DSF (thermal shift) panel per Fedorov et al
Method: (§1) Differences in the melting temperature (ΔTm) were measured as described by Fedorov et al.. Purified proteins were buffered in 25 mM HEPES (pH 7.5), 500 mM NaCl and were assayed in a 384-well plate with a final protein concentration of 2 μM in 10 μL assay volume. Inhibitors were added to a final concentration of 10 μM using an ECHO 550 acoustic dispenser (Labcyte, San José, CA, USA). As a fluorescence probe, SYPRO-Orange (Molecular Probes, Eugene, OR, USA) was added in a 1:5000 dilution. […] Data were analyzed through Boltzmann equation in the Protein Thermal Shift software (Applied Biosystems, Waltham, MA, USA). Samples were measured in technical duplicates.

BRAF = target: T2, BRAF (Homo sapiens, UniProt P15056); assay: DSF thermal shift assay; type: binding; conditions: inhibitor 10 μM, protein 2 μM
T2 construct: purchased in-house DSF (thermal shift) panel per Fedorov et al
Method: as §1

BRPF1 = target: T3, BRPF1 (Homo sapiens, UniProt P55201); assay: DSF thermal shift assay; type: binding; conditions: inhibitor 10 μM, protein 2 μM
T3 construct: purchased in-house DSF (thermal shift) panel per Fedorov et al; IC50 follow-up at Reaction Biology Corp
Method: as §1

CAMK1G = target: T4, CAMK1G (Homo sapiens, UniProt Q96NX5); assay: DSF thermal shift assay; type: binding; conditions: inhibitor 10 μM, protein 2 μM
T4 construct: purchased in-house DSF (thermal shift) panel per Fedorov et al; IC50 follow-up at Reaction Biology Corp
Method: as §1

CAMK2D = target: T5, CAMK2D (Homo sapiens, UniProt Q13557); assay: DSF thermal shift assay; type: binding; conditions: inhibitor 10 μM, protein 2 μM
T5 construct: purchased in-house DSF (thermal shift) panel per Fedorov et al
Method: as §1

CK2A1 = target: T6, CK2A1 (Homo sapiens, UniProt P68400); assay: DSF thermal shift assay; type: binding; conditions: inhibitor 10 μM, protein 2 μM
T6 construct: purchased in-house DSF (thermal shift) panel per Fedorov et al
Method: as §1

CLK1 = target: T7, CLK1 (Homo sapiens, UniProt P49759); assay: DSF thermal shift assay; type: binding; conditions: inhibitor 10 μM, protein 2 μM
T7 construct: purchased in-house DSF (thermal shift) panel per Fedorov et al; IC50 follow-up at Reaction Biology Corp
Method: as §1

CSNK2A2 = target: T8, CSNK2A2 (Homo sapiens, UniProt P19784); assay: DSF thermal shift assay; type: binding; conditions: inhibitor 10 μM, protein 2 μM
T8 construct: purchased in-house DSF (thermal shift) panel per Fedorov et al
Method: as §1

EPHA5 = target: T9, EPHA5 (Homo sapiens, UniProt P54756); assay: DSF thermal shift assay; type: binding; conditions: inhibitor 10 μM, protein 2 μM
T9 construct: purchased in-house DSF (thermal shift) panel per Fedorov et al; IC50 follow-up at Reaction Biology Corp
Method: as §1

FGFR3 = target: T10, FGFR3 (Homo sapiens, UniProt P22607); assay: DSF thermal shift assay; type: binding; conditions: inhibitor 10 μM, protein 2 μM
T10 construct: purchased in-house DSF (thermal shift) panel per Fedorov et al
Method: as §1

GSG2 = target: T11, GSG2 (Homo sapiens, UniProt Q8TF76); assay: DSF thermal shift assay; type: binding; conditions: inhibitor 10 μM, protein 2 μM
T11 construct: purchased in-house DSF (thermal shift) panel per Fedorov et al
Method: as §1

MAPK15 = target: T12, MAPK15 (Homo sapiens, UniProt Q8TD08); assay: DSF thermal shift assay; type: binding; conditions: inhibitor 10 μM, protein 2 μM
T12 construct: purchased in-house DSF (thermal shift) panel per Fedorov et al
Method: as §1

MAPK8 = target: T13, MAPK8 (Homo sapiens, UniProt P45983); assay: DSF thermal shift assay; type: binding; conditions: inhibitor 10 μM, protein 2 μM
T13 construct: purchased in-house DSF (thermal shift) panel per Fedorov et al; IC50 follow-up at Reaction Biology Corp
Method: as §1

MAPKAPK2 = target: T14, MAPKAPK2 (Homo sapiens, UniProt P49137); assay: DSF thermal shift assay; type: binding; conditions: inhibitor 10 μM, protein 2 μM
T14 construct: purchased in-house DSF (thermal shift) panel per Fedorov et al; IC50 follow-up at Reaction Biology Corp
Method: as §1

MARK3 = target: T15, MARK3 (Homo sapiens, UniProt P27448); assay: DSF thermal shift assay; type: binding; conditions: inhibitor 10 μM, protein 2 μM
T15 construct: purchased in-house DSF (thermal shift) panel per Fedorov et al
Method: as §1

MARK4 = target: T16, MARK4 (Homo sapiens, UniProt Q96L34); assay: DSF thermal shift assay; type: binding; conditions: inhibitor 10 μM, protein 2 μM
T16 construct: purchased in-house DSF (thermal shift) panel per Fedorov et al; IC50 follow-up at Reaction Biology Corp
Method: as §1

MST4 = target: T17, MST4 (Homo sapiens, UniProt Q9P289); assay: DSF thermal shift assay; type: binding; conditions: inhibitor 10 μM, protein 2 μM
T17 construct: purchased in-house DSF (thermal shift) panel per Fedorov et al
Method: as §1

PCTK1 = target: T18, PCTK1 (Homo sapiens, UniProt Q00536); assay: DSF thermal shift assay; type: binding; conditions: inhibitor 10 μM, protein 2 μM
T18 construct: purchased in-house DSF (thermal shift) panel per Fedorov et al; IC50 follow-up at Reaction Biology Corp
Method: as §1

RIOK1 = target: T19, RIOK1 (Homo sapiens, UniProt Q9BRS2); assay: DSF thermal shift assay; type: binding; conditions: inhibitor 10 μM, protein 2 μM
T19 construct: purchased in-house DSF (thermal shift) panel per Fedorov et al; IC50 follow-up at Reaction Biology Corp
Method: as §1

SRC = target: T20, SRC (Homo sapiens, UniProt P12931); assay: DSF thermal shift assay; type: binding; conditions: inhibitor 10 μM, protein 2 μM
T20 construct: purchased in-house DSF (thermal shift) panel per Fedorov et al
Method: as §1

STK17B = target: T21, STK17B (Homo sapiens, UniProt O94768); assay: DSF thermal shift assay; type: binding; conditions: inhibitor 10 μM, protein 2 μM
T21 construct: purchased in-house DSF (thermal shift) panel per Fedorov et al; IC50 follow-up at Reaction Biology Corp
Method: as §1

STK6 = target: T22, STK6 (Homo sapiens, UniProt O14965); assay: DSF thermal shift assay; type: binding; conditions: inhibitor 10 μM, protein 2 μM
T22 construct: purchased in-house DSF (thermal shift) panel per Fedorov et al; IC50 follow-up at Reaction Biology Corp
Method: as §1

VRK1 = target: T23, VRK1 (Homo sapiens, UniProt Q99986); assay: DSF thermal shift assay; type: binding; conditions: inhibitor 10 μM, protein 2 μM
T23 construct: purchased in-house DSF (thermal shift) panel per Fedorov et al; IC50 follow-up at Reaction Biology Corp
Method: as §1

T12 sequence (Q8TD08 whole entry): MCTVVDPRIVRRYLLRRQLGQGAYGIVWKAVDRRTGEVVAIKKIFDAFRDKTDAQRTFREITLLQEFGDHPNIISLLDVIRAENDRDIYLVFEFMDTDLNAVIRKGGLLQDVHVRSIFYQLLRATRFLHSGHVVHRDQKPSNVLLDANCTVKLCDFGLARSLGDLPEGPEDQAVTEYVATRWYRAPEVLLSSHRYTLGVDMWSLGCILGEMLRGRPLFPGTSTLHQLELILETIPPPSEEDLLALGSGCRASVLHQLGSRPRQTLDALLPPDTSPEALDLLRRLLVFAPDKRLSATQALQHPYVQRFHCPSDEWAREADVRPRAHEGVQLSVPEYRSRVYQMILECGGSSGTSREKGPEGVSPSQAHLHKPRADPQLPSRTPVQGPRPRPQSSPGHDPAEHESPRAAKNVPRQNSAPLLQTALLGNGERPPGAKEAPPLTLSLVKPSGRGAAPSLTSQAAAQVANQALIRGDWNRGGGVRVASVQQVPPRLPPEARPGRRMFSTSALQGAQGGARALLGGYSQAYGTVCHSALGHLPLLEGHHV
T15 sequence (P27448 whole entry): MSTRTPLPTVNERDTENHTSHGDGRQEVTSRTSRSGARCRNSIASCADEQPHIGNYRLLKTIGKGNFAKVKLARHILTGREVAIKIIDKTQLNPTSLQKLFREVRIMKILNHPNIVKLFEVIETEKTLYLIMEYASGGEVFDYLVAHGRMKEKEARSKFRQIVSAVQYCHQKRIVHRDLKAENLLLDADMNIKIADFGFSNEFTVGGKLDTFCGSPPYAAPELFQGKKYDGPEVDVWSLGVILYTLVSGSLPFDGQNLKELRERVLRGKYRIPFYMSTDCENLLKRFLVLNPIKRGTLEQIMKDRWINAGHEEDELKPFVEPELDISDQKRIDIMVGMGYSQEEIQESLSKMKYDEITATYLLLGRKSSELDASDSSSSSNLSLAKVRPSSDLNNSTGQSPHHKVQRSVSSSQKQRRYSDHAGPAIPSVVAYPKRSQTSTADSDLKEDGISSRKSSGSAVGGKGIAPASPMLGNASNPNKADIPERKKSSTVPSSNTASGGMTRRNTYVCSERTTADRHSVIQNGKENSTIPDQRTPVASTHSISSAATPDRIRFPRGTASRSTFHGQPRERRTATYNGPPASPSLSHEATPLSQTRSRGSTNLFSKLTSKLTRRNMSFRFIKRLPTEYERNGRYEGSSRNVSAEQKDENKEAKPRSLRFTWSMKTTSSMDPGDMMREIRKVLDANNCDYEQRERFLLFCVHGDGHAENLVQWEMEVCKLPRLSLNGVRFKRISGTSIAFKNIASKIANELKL
T20 sequence (P12931 whole entry): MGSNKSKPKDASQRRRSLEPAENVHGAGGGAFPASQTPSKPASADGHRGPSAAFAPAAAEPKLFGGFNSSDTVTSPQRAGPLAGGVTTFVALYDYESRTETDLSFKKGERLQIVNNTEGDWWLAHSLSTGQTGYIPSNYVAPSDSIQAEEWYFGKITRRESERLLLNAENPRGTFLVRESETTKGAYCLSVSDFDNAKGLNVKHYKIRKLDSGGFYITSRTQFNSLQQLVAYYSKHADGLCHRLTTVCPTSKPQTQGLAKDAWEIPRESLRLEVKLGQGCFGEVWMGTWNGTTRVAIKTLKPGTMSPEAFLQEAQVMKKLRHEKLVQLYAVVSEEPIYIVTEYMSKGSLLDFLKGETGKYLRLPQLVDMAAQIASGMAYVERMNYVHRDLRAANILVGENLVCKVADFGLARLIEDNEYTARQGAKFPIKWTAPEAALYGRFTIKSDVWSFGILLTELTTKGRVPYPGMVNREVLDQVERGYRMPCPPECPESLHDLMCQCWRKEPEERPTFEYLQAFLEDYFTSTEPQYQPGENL
T6 sequence (P68400 whole entry): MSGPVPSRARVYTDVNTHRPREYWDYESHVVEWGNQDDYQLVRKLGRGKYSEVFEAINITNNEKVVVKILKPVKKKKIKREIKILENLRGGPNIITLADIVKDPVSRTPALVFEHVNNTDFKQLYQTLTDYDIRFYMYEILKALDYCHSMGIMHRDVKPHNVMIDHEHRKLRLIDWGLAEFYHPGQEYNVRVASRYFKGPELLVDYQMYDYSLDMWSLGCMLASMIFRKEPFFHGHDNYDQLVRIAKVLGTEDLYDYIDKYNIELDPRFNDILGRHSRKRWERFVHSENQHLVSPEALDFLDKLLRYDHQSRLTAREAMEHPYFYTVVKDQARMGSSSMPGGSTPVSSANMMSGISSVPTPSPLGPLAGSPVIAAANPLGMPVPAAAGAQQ
T22 sequence (O14965 whole entry): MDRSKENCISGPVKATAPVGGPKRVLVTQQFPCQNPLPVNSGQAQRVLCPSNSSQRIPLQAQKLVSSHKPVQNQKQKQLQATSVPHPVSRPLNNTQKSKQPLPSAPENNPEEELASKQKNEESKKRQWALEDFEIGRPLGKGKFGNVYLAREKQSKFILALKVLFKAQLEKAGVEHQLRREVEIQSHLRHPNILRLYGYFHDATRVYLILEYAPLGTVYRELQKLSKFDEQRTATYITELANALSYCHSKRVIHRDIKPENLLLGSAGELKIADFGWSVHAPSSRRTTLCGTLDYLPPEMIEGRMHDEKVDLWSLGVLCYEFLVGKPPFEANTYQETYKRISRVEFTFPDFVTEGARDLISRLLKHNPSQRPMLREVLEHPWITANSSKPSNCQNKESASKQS
T1 sequence (Q13873 27-1038): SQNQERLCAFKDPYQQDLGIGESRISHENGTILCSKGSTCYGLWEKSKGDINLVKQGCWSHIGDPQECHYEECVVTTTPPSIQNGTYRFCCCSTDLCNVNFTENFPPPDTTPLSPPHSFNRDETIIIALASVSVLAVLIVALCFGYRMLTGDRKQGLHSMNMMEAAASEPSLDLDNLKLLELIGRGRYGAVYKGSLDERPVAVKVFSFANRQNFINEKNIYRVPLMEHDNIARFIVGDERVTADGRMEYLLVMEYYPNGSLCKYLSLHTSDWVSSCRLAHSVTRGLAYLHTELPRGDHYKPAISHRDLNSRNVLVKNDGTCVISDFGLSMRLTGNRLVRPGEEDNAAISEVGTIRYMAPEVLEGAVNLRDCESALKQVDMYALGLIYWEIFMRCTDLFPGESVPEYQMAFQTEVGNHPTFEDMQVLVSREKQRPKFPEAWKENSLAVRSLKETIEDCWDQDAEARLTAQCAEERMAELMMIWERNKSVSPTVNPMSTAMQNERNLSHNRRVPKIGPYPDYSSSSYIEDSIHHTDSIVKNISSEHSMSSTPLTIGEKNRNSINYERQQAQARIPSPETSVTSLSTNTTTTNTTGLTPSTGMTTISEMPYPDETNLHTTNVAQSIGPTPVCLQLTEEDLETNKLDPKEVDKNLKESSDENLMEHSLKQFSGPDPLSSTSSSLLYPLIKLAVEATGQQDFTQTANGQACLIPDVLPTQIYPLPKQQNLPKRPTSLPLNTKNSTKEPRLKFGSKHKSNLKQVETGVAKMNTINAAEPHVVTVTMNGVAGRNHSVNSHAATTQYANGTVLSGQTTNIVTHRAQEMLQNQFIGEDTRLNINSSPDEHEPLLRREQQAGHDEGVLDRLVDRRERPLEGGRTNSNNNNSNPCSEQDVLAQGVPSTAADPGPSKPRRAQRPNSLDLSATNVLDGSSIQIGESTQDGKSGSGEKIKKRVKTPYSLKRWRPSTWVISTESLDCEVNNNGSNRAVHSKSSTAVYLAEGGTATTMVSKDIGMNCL
T9 sequence (P54756 25-1037): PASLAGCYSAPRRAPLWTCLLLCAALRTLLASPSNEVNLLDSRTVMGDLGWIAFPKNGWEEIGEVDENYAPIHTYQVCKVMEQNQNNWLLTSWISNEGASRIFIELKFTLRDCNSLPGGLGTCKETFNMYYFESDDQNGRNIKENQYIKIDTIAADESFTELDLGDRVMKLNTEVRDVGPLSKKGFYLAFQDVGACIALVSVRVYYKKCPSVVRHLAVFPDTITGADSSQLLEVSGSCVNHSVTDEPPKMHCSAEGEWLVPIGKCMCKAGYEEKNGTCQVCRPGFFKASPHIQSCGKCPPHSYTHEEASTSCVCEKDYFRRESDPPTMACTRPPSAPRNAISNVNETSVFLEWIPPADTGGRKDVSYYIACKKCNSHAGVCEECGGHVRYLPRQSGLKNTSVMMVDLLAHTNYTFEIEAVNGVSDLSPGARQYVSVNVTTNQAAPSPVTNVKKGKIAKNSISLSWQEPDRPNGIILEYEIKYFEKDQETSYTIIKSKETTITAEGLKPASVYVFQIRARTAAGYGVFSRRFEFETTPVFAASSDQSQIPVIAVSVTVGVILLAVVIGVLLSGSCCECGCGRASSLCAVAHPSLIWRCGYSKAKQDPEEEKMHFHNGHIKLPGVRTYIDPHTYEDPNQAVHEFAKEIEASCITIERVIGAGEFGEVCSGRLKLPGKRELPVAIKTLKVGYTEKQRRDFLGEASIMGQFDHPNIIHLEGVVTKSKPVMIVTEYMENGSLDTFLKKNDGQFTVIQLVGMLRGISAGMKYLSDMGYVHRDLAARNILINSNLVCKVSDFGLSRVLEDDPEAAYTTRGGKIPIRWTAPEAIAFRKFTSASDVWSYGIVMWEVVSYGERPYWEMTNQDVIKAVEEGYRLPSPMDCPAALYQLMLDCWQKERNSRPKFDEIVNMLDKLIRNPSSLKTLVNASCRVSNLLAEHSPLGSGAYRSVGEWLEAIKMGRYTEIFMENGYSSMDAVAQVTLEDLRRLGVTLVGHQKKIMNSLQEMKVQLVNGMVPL
T21 sequence (O94768 whole entry): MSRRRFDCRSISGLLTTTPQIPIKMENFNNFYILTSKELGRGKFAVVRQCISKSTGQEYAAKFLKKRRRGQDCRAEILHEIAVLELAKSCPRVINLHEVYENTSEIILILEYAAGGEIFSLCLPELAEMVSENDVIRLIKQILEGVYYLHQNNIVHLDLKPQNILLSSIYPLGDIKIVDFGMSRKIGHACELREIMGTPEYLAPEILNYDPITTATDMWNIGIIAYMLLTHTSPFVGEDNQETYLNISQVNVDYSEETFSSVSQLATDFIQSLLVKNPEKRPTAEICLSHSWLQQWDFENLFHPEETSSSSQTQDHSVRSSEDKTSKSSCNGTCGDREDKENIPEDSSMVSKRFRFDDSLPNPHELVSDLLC

Compound: CCc1cnc(Nc2nc(Cl)ccc2[N+](=O)[O-])nc1N1CCN(Cc2nc3cc(C(F)(F)F)ccc3[nH]2)CC1 [Compound 2]
- half-life [1]: 139 h
- stability in mouse liver microsomes (Microsomal stability): acceptable stability
- ΔTm at 10 µM (BMPR2): -0.4 °C
- ΔTm at 10 µM (BRAF): -0.1 °C
- ΔTm at 10 µM (BRPF1): 0.9 °C
- ΔTm at 10 µM (CAMK1G): -0.6 °C
- ΔTm at 10 µM (CAMK2D): -0.1 °C
- ΔTm at 10 µM (CK2A1): 0.1 °C
- ΔTm at 10 µM (CLK1): 0.3 °C
- ΔTm at 10 µM (CSNK2A2): 0.4 °C
- ΔTm at 10 µM (EPHA5): 0.5 °C
- ΔTm at 10 µM (FGFR3): 0.1 °C
- ΔTm at 10 µM (GSG2): 0.1 °C
- ΔTm at 10 µM (MAPK15): -0.2 °C
- ΔTm at 10 µM (MAPK8): 0.3 °C
- ΔTm at 10 µM (MAPKAPK2): -0.3 °C
- ΔTm at 10 µM (MARK3): 0.9 °C
- ΔTm at 10 µM (MARK4): 0.1 °C
- ΔTm at 10 µM (MST4): -1.1 °C
- ΔTm at 10 µM (PCTK1): -0.2 °C
- ΔTm at 10 µM (RIOK1): 0.2 °C
- ΔTm at 10 µM (SRC): -0.5 °C
- ΔTm at 10 µM (STK17B): -0.8 °C
- ΔTm at 10 µM (STK6): 0.2 °C
- ΔTm at 10 µM (VRK1): -0.4 °C

From publication PMC8534050, “Discovery of a Potent and Highly Isoform-Selective Inhibitor of the Neglected Ribosomal Protein S6 Kinase Beta 2 (S6K2)” (Cancers, 2021)
